Results: EP2692352A1, “HOT FLASH SUPPRESSANT” (Shiseido Company, Ltd., priority 2011, dated 2014)

Legend:
menopausal mice = conditions: apelin highly expressed in epidermis (K14 promoter transgene, OVXTG) vs OVXWT; nifedipine 50 µg/kg i.p.; 10, 30 and 45 minutes; FIG. 1
Experimental: Ovariectomy was performed on C57/BL6 mice highly expressing apelin in the epidermis under the control of a K14 promoter (herein after referred to as apelin-highly expressed mice, apelin TG or TG) and the corresponding wild-type mice (C57/BL6) (n=5, 8 to 10 week-old) to obtain menopausal mice highly expressing apelin and menopausal wild type mice. Furthermore, wild type mice that underwent sham surgery were used as a control. Four weeks later, nifedipine (50 µg/kg) was administered intraperitoneally as a vasodilator, and changes in tail temperature were analyzed using thermography (Thermo Tracer TH9011MR, NEC/Avio Infrared Technologies Co., Ltd.) at 10, 30 and 45 minutes after administration.

Apelin receptor APJ = assay: cAMP luciferase assay in APJ-expressing NIH3T3 cells (screening system for apelin-like agents); type: cell-based; conditions: FIG. 3
Experimental: A cAMP luciferase reporter vector was transfected into a stable cell line, which was obtained by highly expressing Apelin receptor APJ in NIH3T3 cells, and then subjecting to selection with hygromycin (provided by Professor Nobuyuki Takakura of the Research Institute for Microbial Diseases of Osaka University), and these were used in the cAMP luciferase assay described below. Culturing was carried out in DMEM medium containing 10% FBS containing 200 µg/ml of hygromycin (Invitrogen). On the day before the assay, 2.0 x 10^5 cells were seeded into each well of a 96-well plate followed by culturing in DMEM medium containing 10% FBS and 200 µg/ml of hygromycin.
After culturing overnight, the medium was removed by aspiration and replaced with 100 µl of additive-free DMEM per well. Three hours later, Glosensor™ cAMP Reagent (Promega) was added at 4 µl per well followed by equilibrating for 2 hours at room temperature under light blocking. Subsequently, apelin 13 (Peptide Institute) was diluted with additive-free DMEM medium to a concentration of 0.4 µg/ml and this was added at 50 µl per well (final concentration: 0.1 µg/ml) followed by incubating for 5 minutes at room temperature. […] Subsequently, luminescence was measured with the GloMax™ 96 Microplate Luminometer (Promega). […]

apelin
transient rises in body temperature (tail temperature) caused by hot flashes (menopausal mice): able to suppress or improve transient rises in body temperature caused by hot flashes in a short period of time
cAMP concentration (Apelin receptor APJ; apelin 13 final concentration 0.1 µg/ml, forskolin final 10 µM, versus forskolin-only control): decreased
decreases in cAMP concentration in the presence of apelin neutralizing antibody (Apelin receptor APJ; apelin final 0.5 µg/ml together with neutralizing antibody 4G5 at 1.5, 5, 15 and 50 µg/ml): suppressed
